Data: PubChem BioAssay (NCI)
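Five compound concentrations were applied to cells in 96-well plates for 48 hours; endpoints were derived by simple linear interpolation of the resulting dose-response curve. The concentration for 50% growth inhibition is given as GI50. At the TGI there is no net growth.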

Tests used:
Test in all cases: NCI anticancer screen, dose series, 48 h
[1] = system: ACHN renal
[2] = system: SF-295 CNS
[3] = system: NCI-H226 lung
[4] = system: SF-268 CNS
[5] = system: T-47D breast
[6] = system: TK-10 renal
[7] = system: IGROV1 ovarian
[8] = system: K-562 leukemia
[9] = system: U251 CNS
[10] = system: HCC-2998 colon
[11] = system: SF-539 CNS
[12] = system: OVCAR-8 ovarian
[13] = system: OVCAR-3 ovarian
[14] = system: NCI-H522 lung
[15] = system: CCRF-CEM leukemia
[16] = system: HT29 colon
[17] = system: SN12C renal
[18] = system: NCI-H460 lung
[19] = system: UO-31 renal
[20] = system: RXF 393 renal
[21] = system: SR leukemia
[22] = system: MDA-MB-231 breast
[23] = system: CAKI-1 renal
[24] = system: M14 melanoma
[25] = system: OVCAR-5 ovarian
[26] = system: MALME-3M melanoma
[27] = system: A549 NSCLC
[28] = system: HOP-92 NSCLC
[29] = system: SNB-19 CNS
[30] = system: SW-620 colon
[31] = system: SK-OV-3 ovarian
[32] = system: SK-MEL-28 melanoma
[33] = system: OVCAR-4 ovarian
[34] = system: MCF7 breast
[35] = system: SK-MEL-5 melanoma
[36] = system: BT-549 breast
[37] = system: UACC-62 melanoma
[38] = system: COLO 205 colon
[39] = system: MDA-MB-435
[40] = system: SK-MEL-2 melanoma
[41] = system: HOP-62 NSCLC
[42] = system: UACC-257 melanoma
[43] = system: NCI-H23 lung
[44] = system: HL-60(TB) leukemia
[45] = system: A498 renal
[46] = system: MDA-MB-468 breast
[47] = system: MOLT-4 leukemia
[48] = system: HCT-116 colon
[49] = system: HS 578T breast
[50] = system: KM12 colon
[51] = system: 786-0 renal
[52] = system: HCT-15 colon
[53] = system: EKVX NSCLC

**Q.** Which results are given for `COc1ccc(N=Nc2c(N)nn3c(N)c(C#N)c(-c4ccccc4)nc23)cc1`?
**A.** GI50 [1]: 4.08 µM; TGI [1]: > 100 µM; GI50 [2]: 4.03 µM; TGI [2]: > 100 µM; GI50 [3]: 2.56 µM; TGI [3]: 24.8 µM; GI50 [4]: 5.88 µM; TGI [4]: > 100 µM; GI50 [5]: 2.75 µM; TGI [5]: > 100 µM; GI50 [6]: 5.88 µM; TGI [6]: > 100 µM; GI50 [7]: 2.6 µM; TGI [7]: > 100 µM; GI50 [8]: > 100 µM; TGI [8]: > 100 µM; GI50 [9]: 3.94 µM; TGI [9]: > 100 µM; GI50 [10]: > 100 µM; TGI [10]: > 100 µM; GI50 [11]: 3.26 µM; TGI [11]: 18.6 µM; GI50 [12]: 4.61 µM; TGI [12]: > 100 µM; GI50 [13]: 4.18 µM; TGI [13]: > 100 µM; GI50 [14]: 6.25 µM; TGI [14]: > 100 µM; GI50 [15]: > 100 µM; TGI [15]: > 100 µM; GI50 [16]: > 100 µM; TGI [16]: > 100 µM; GI50 [17]: 5.8 µM; TGI [17]: > 100 µM; GI50 [18]: 4.06 µM; TGI [18]: > 100 µM; GI50 [19]: 8.22 µM; TGI [19]: > 100 µM; GI50 [20]: 3.17 µM; TGI [20]: 12 µM; GI50 [21]: > 100 µM; TGI [21]: > 100 µM; GI50 [22]: 3.66 µM; TGI [22]: 50.5 µM; GI50 [23]: 4.58 µM; TGI [23]: > 100 µM; GI50 [24]: > 100 µM; TGI [24]: > 100 µM; GI50 [25]: > 100 µM; TGI [25]: > 100 µM; GI50 [26]: 5.46 µM; TGI [26]: > 100 µM; GI50 [27]: > 100 µM; TGI [27]: > 100 µM; GI50 [28]: 2.65 µM; TGI [28]: 52.6 µM; GI50 [29]: 5.06 µM; TGI [29]: 44.1 µM; GI50 [30]: > 100 µM; TGI [30]: > 100 µM; GI50 [31]: 6.04 µM; TGI [31]: > 100 µM; GI50 [32]: > 100 µM; TGI [32]: > 100 µM; GI50 [33]: 2.78 µM; TGI [33]: 29.3 µM; GI50 [34]: 1.89 µM; TGI [34]: > 100 µM; GI50 [35]: 9.02 µM; TGI [35]: > 100 µM; GI50 [36]: 4.29 µM; TGI [36]: > 100 µM; GI50 [37]: 20.9 µM; TGI [37]: > 100 µM; GI50 [38]: > 100 µM; TGI [38]: > 100 µM; GI50 [39]: > 100 µM; TGI [39]: > 100 µM; GI50 [40]: 16.6 µM; TGI [40]: > 100 µM; GI50 [41]: 3.7 µM; TGI [41]: 41.5 µM; GI50 [42]: > 100 µM; TGI [42]: > 100 µM; GI50 [43]: 5.05 µM; TGI [43]: > 100 µM; GI50 [44]: > 100 µM; TGI [44]: > 100 µM; GI50 [45]: > 100 µM; TGI [45]: > 100 µM; GI50 [46]: 4.07 µM; TGI [46]: > 100 µM; GI50 [47]: > 100 µM; TGI [47]: > 100 µM; GI50 [48]: > 100 µM; TGI [48]: > 100 µM; GI50 [49]: 3 µM; TGI [49]: 65 µM; GI50 [50]: > 100 µM; TGI [50]: > 100 µM; GI50 [51]: 12.8 µM; TGI [51]: > 100 µM; GI50 [52]: > 100 µM; TGI [52]: > 100 µM; GI50 [53]: 8.82 µM; TGI [53]: > 100 µM
